Paper PMC5218480 (PLoS ONE, 2017)

Test system: MV-4-11 cells
Assay: Gene expression microarray analysis (Affymetrix PrimeView) and GSEA
Assay type: cell-based, human
Set-up: RFU PODN (11730768_x_at) / Fold change /veh PODN (11730768_x_at) / RFU LINC00158 (11744669_a_at) / Fold change /veh LINC00158 (11744669_a_at) / RFU DUSP10 (11751237_a_at) / Fold change /veh DUSP10 (11751237_a_at) / RFU ID3 (11757404_x_at) / Fold change /veh ID3 (11757404_x_at) / RFU PLEKHG5 (11737974_s_at) / Fold change /veh PLEKHG5 (11737974_s_at) / RFU LRRC4B (11730491_at) / Fold change /veh LRRC4B (11730491_at) / RFU GIMAP4 (11747438_a_at) / Fold change /veh GIMAP4 (11747438_a_at) / RFU KRT8 (11758183_x_at) / Fold change /veh KRT8 (11758183_x_at) / RFU CNN1 (11734310_a_at) / Fold change /veh CNN1 (11734310_a_at) / RFU VPS37D (11726825_at) / Fold change /veh VPS37D (11726825_at) / RFU C10orf10 (11716522_x_at) / Fold change /veh C10orf10 (11716522_x_at) / RFU KIR2DL2 /// KIR2DL4 /// KIR2DL5A /// KIR2DL5B /// KIR2DS1 /// KIR2DS2 /// KIR2DS3 /// KIR2DS4 /// KIR3DL3 /// KIR3DL3 /// KIR3DS1 (11738374_at) / Fold change /veh KIR2DL2 /// KIR2DL4 /// KIR2DL5A /// KIR2DL5B /// KIR2DS1 /// KIR2DS2 /// KIR2DS3 /// KIR2DS4 /// KIR3DL3 /// KIR3DL3 /// KIR3DS1 (11738374_at) / RFU C1QL1 (11718748_at) / Fold change /veh C1QL1 (11718748_at) / RFU TMPRSS4 (11747572_a_at) / Fold change /veh TMPRSS4 (11747572_a_at) / RFU HAMP (11756126_x_at) / Fold change /veh HAMP (11756126_x_at) / RFU RNFT2 (11725882_a_at) / Fold change /veh RNFT2 (11725882_a_at) / RFU NR4A2 (11747474_a_at) / Fold change /veh NR4A2 (11747474_a_at) / RFU ABCC12 (11746883_a_at) / Fold change /veh ABCC12 (11746883_a_at) / RFU TMEM136 (11760407_x_at) / Fold change /veh TMEM136 (11760407_x_at) / RFU CLDN22 /// WWC2 (11732394_at) / Fold change /veh CLDN22 /// WWC2 (11732394_at) / RFU HLA-DPB1 (11760878_x_at) / Fold change /veh HLA-DPB1 (11760878_x_at) / RFU SPINT1 (11716480_a_at) / Fold change /veh SPINT1 (11716480_a_at) / RFU GAP43 (11754022_s_at) / Fold change /veh GAP43 (11754022_s_at) / RFU A4GNT (11735810_at) / Fold change /veh A4GNT (11735810_at) / RFU PRB3 (11715151_x_at) / Fold change /veh PRB3 (11715151_x_at) / RFU TUBB4B (11761932_at) / Fold change /veh TUBB4B (11761932_at) / RFU CAPN14 (11732068_a_at) / Fold change /veh CAPN14 (11732068_a_at) / RFU TMCC2 (11721928_a_at) / Fold change /veh TMCC2 (11721928_a_at) / RFU IRGQ (11745062_a_at) / Fold change /veh IRGQ (11745062_a_at) / RFU FAM174B (11720279_a_at) / Fold change /veh FAM174B (11720279_a_at) / RFU TMPRSS4 (11748680_a_at) / Fold change /veh TMPRSS4 (11748680_a_at) / RFU FAM212B (11763350_a_at) / Fold change /veh FAM212B (11763350_a_at) / RFU PLEKHG5 (11743358_a_at) / Fold change /veh PLEKHG5 (11743358_a_at) / RFU ZSCAN30 (11745921_a_at) / Fold change /veh ZSCAN30 (11745921_a_at) / RFU CMKLR1 (11741424_a_at) / Fold change /veh CMKLR1 (11741424_a_at) / RFU LOC101060620 /// MAPK8IP1 (11723275_at) / Fold change /veh LOC101060620 /// MAPK8IP1 (11723275_at) / RFU SPTSSB (11747773_x_at) / Fold change /veh SPTSSB (11747773_x_at) / RFU PRSS12 (11739890_at) / Fold change /veh PRSS12 (11739890_at) / RFU BIN1 (11741810_x_at) / Fold change /veh BIN1 (11741810_x_at) / RFU WNT11 (11732464_a_at) / Fold change /veh WNT11 (11732464_a_at) / RFU C10orf10 (11716521_a_at) / Fold change /veh C10orf10 (11716521_a_at) / RFU C5orf56 (11738089_at) / Fold change /veh C5orf56 (11738089_at) / RFU CYB561 (11721691_x_at) / Fold change /veh CYB561 (11721691_x_at) / RFU ANKRD19P (11752326_a_at) / Fold change /veh ANKRD19P (11752326_a_at) / RFU OR2T12 /// OR2T33 /// OR2T8 (11738714_s_at) / Fold change /veh OR2T12 /// OR2T33 /// OR2T8 (11738714_s_at) / RFU VCAN (11748164_a_at) / Fold change /veh VCAN (11748164_a_at) / RFU JSRP1 (11732532_at) / Fold change /veh JSRP1 (11732532_at) / RFU KRTAP10-11 (11738290_x_at) / Fold change /veh KRTAP10-11 (11738290_x_at) / RFU MYO3A (11730013_a_at) / Fold change /veh MYO3A (11730013_a_at) / RFU EBF3 (11725865_a_at) / Fold change /veh EBF3 (11725865_a_at) / RFU CAMK2N1 (11719241_x_at) / Fold change /veh CAMK2N1 (11719241_x_at) / RFU C5orf56 (11738088_a_at) / Fold change /veh C5orf56 (11738088_a_at) / RFU OLFML3 (11715873_a_at) / Fold change /veh OLFML3 (11715873_a_at) / RFU LOC100653217 /// NTM (11731650_a_at) / Fold change /veh LOC100653217 /// NTM (11731650_a_at) / RFU MAPK11 (11762145_a_at) / Fold change /veh MAPK11 (11762145_a_at) / RFU FIZ1 (11724087_x_at) / Fold change /veh FIZ1 (11724087_x_at) / RFU OASL (11726364_x_at) / Fold change /veh OASL (11726364_x_at) / RFU SOX15 (11748057_x_at) / Fold change /veh SOX15 (11748057_x_at) / RFU CD79A (11719716_a_at) / Fold change /veh CD79A (11719716_a_at) / RFU HIST1H1D (11736915_at) / Fold change /veh HIST1H1D (11736915_at) / RFU CASKIN2 (11723855_a_at) / Fold change /veh CASKIN2 (11723855_a_at) / RFU LOC730098 (11760151_x_at) / Fold change /veh LOC730098 (11760151_x_at) / RFU OR4N2 (11742367_at) / Fold change /veh OR4N2 (11742367_at) / RFU PRRT2 (11749266_a_at) / Fold change /veh PRRT2 (11749266_a_at) / RFU SNX32 (11753110_a_at) / Fold change /veh SNX32 (11753110_a_at) / RFU CDHR5 (11726645_a_at) / Fold change /veh CDHR5 (11726645_a_at) / RFU RCAN1 (11760418_a_at) / Fold change /veh RCAN1 (11760418_a_at) / RFU FAM167A (11723789_a_at) / Fold change /veh FAM167A (11723789_a_at) / RFU FAM26E (11764081_at) / Fold change /veh FAM26E (11764081_at) / RFU ISYNA1 (11749810_s_at) / Fold change /veh ISYNA1 (11749810_s_at) / RFU ACY1 (11761880_at) / Fold change /veh ACY1 (11761880_at) / RFU 11764098_at / Fold change /veh 11764098_at / RFU SAMD14 (11745864_x_at) / Fold change /veh SAMD14 (11745864_x_at) / RFU NPB (11741838_a_at) / Fold change /veh NPB (11741838_a_at) / RFU TMPRSS6 (11731388_a_at) / Fold change /veh TMPRSS6 (11731388_a_at) / RFU KRTAP10-2 (11738614_at) / Fold change /veh KRTAP10-2 (11738614_at) / RFU ARHGAP8 /// PRR5-ARHGAP8 (11727945_x_at) / Fold change /veh ARHGAP8 /// PRR5-ARHGAP8 (11727945_x_at) / RFU KRTAP5-7 /// NADSYN1 (11734609_at) / Fold change /veh KRTAP5-7 /// NADSYN1 (11734609_at) / RFU RASL12 (11751679_a_at) / Fold change /veh RASL12 (11751679_a_at) / RFU CDKN2B (11736163_a_at) / Fold change /veh CDKN2B (11736163_a_at) / RFU PRF1 (11729649_at) / Fold change /veh PRF1 (11729649_at) / RFU, ZNF638 /// ZNF638-IT1 / Fold change vs veh, ZNF638 /// ZNF638-IT1 / RFU, PANK3 / Fold change vs veh, PANK3 / RFU, SH3YL1 / Fold change vs veh, SH3YL1 / RFU, ZEB2 / Fold change vs veh, ZEB2 / RFU, NRIP1 / Fold change vs veh, NRIP1 / RFU, PTTG1IP / Fold change vs veh, PTTG1IP / RFU, CAPN2 / Fold change vs veh, CAPN2 / RFU, MED14 / Fold change vs veh, MED14 / RFU, SNORA58 / Fold change vs veh, SNORA58 / RFU, C1orf63 / Fold change vs veh, C1orf63 / RFU, LRRFIP1 / Fold change vs veh, LRRFIP1 / RFU, NDUFAF7 / Fold change vs veh, NDUFAF7 / RFU, SLC12A2 / Fold change vs veh, SLC12A2 / RFU, IBTK / Fold change vs veh, IBTK / RFU, ESF1 / Fold change vs veh, ESF1 / Fold change vs veh, TMEM50B / RFU, TAOK1 / Fold change vs veh, TAOK1 / RFU, ACBD3 / Fold change vs veh, ACBD3 / RFU, TMA16 / Fold change vs veh, TMA16 / RFU, RWDD3 / Fold change vs veh, RWDD3 / RFU, BCAT1 / Fold change vs veh, BCAT1 / RFU, EDEM3 / Fold change vs veh, EDEM3 / RFU, TMEM33 / Fold change vs veh, TMEM33 / RFU, WDR75 / Fold change vs veh, WDR75 / RFU, AHCTF1 / Fold change vs veh, AHCTF1 / RFU, TFRC / Fold change vs veh, TFRC / RFU, ZDHHC17 / Fold change vs veh, ZDHHC17 / RFU, NOM1 / Fold change vs veh, NOM1 / RFU, ARL8B / Fold change vs veh, ARL8B / RFU, ZBTB11 / Fold change vs veh, ZBTB11 / RFU, TAMM41 / Fold change vs veh, TAMM41 / RFU, KIAA1704 /// LOC100996395 / Fold change vs veh, KIAA1704 /// LOC100996395 / RFU, ING1 / Fold change vs veh, ING1 / RFU, TRMT61B / Fold change vs veh, TRMT61B / RFU, FUBP3 / Fold change vs veh, FUBP3 / RFU, TP53 / Fold change vs veh, TP53 / RFU, TNKS2 / Fold change vs veh, TNKS2 / RFU, ZFP14 / Fold change vs veh, ZFP14 / RFU, ACTR2 / Fold change vs veh, ACTR2 / RFU, PPP3R1 / Fold change vs veh, PPP3R1 / RFU, PIK3R1 / Fold change vs veh, PIK3R1 / RFU, HNRNPA1 / Fold change vs veh, HNRNPA1 / RFU, RNF170 / Fold change vs veh, RNF170 / RFU, ZNF28 / Fold change vs veh, ZNF28 / RFU, RNGTT / Fold change vs veh, RNGTT / RFU, OGT / Fold change vs veh, OGT / RFU, BRD1 / Fold change vs veh, BRD1 / RFU, MARS / Fold change vs veh, MARS / RFU, ZNF655 / Fold change vs veh, ZNF655 / RFU, FAHD1 / Fold change vs veh, FAHD1 / RFU, BDP1 / Fold change vs veh, BDP1 / RFU, LRRCC1 / Fold change vs veh, LRRCC1 / RFU, ARID1A / Fold change vs veh, ARID1A / RFU, ZNF146 / Fold change vs veh, ZNF146 / RFU, ZNF330 / Fold change vs veh, ZNF330 / RFU, GPN3 / Fold change vs veh, GPN3 / RFU, C9orf123 / Fold change vs veh, C9orf123 / RFU, N4BP2L2 / Fold change vs veh, N4BP2L2 / RFU, ARFIP1 / Fold change vs veh, ARFIP1 / RFU, FAM179B / Fold change vs veh, FAM179B / RFU, BCL10 / Fold change vs veh, BCL10 / RFU, UHRF1BP1L / Fold change vs veh, UHRF1BP1L / RFU, BET1 / Fold change vs veh, BET1 / RFU, CNOT2 / Fold change vs veh, CNOT2 / RFU, ZNF268 / Fold change vs veh, ZNF268 / Fold change vs veh, ZNF507 / RFU, DGCR2 / Fold change vs veh, DGCR2 / RFU, WDSUB1 / Fold change vs veh, WDSUB1 / Fold change vs veh, HSP90B1 /// MIR3652 / RFU, ADSS / Fold change vs veh, ADSS / RFU, GK / Fold change vs veh, GK / RFU, ZNF148 / Fold change vs veh, ZNF148 / RFU, TAF9 / Fold change vs veh, TAF9 / RFU, SLC1A5 / Fold change vs veh, SLC1A5 / RFU, SLMO2 / Fold change vs veh, SLMO2 / RFU, ABCC4 / Fold change vs veh, ABCC4 / RFU, LOC101060439 /// RAP1B / Fold change vs veh, LOC101060439 /// RAP1B / RFU, RFX7 / Fold change vs veh, RFX7 / RFU, GTPBP10 / Fold change vs veh, GTPBP10 / RFU, CNEP1R1 / Fold change vs veh, CNEP1R1 / RFU, BIVM-ERCC5 /// ERCC5 / Fold change vs veh, BIVM-ERCC5 /// ERCC5 / RFU, ILF3 / Fold change vs veh, ILF3 / RFU 11762660_at / Fold change /veh 11762660_at / RFU VCAN (11757783_s_at) / Fold change /veh VCAN (11757783_s_at) / RFU DDX43 (11728927_at) / Fold change /veh DDX43 (11728927_at) / RFU KRT8 (11758188_x_at) / Fold change /veh KRT8 (11758188_x_at) / RFU NKD1 (11759106_at) / Fold change /veh NKD1 (11759106_at) / RFU SRD5A1 (11742802_a_at) / Fold change /veh SRD5A1 (11742802_a_at) / RFU TPSAB1 /// TPSB2 (11721975_s_at) / Fold change /veh TPSAB1 /// TPSB2 (11721975_s_at) / RFU GSTM3 (11746129_a_at) / Fold change /veh GSTM3 (11746129_a_at) / RFU IL23R (11737362_x_at) / Fold change /veh IL23R (11737362_x_at) / RFU TMEM51 (11727254_a_at) / Fold change /veh TMEM51 (11727254_a_at) / RFU PIWIL2 (11732686_x_at) / Fold change /veh PIWIL2 (11732686_x_at) / RFU ORM1 (11744905_x_at) / Fold change /veh ORM1 (11744905_x_at) / RFU CCDC152 (11743942_at) / Fold change /veh CCDC152 (11743942_at) / RFU ECM1 (11717891_a_at) / Fold change /veh ECM1 (11717891_a_at) / RFU IL23R (11748794_a_at) / Fold change /veh IL23R (11748794_a_at) / RFU TNFAIP8L3 (11732012_x_at) / Fold change /veh TNFAIP8L3 (11732012_x_at) / RFU MBOAT4 (11741988_at) / Fold change /veh MBOAT4 (11741988_at) / RFU 11764193_at / Fold change /veh 11764193_at / RFU TMEM53 (11763286_at) / Fold change /veh TMEM53 (11763286_at) / RFU MAGEB2 (11727129_at) / Fold change /veh MAGEB2 (11727129_at) / RFU TMEM200A (11744735_a_at) / Fold change /veh TMEM200A (11744735_a_at) / RFU CCDC152 (11751479_a_at) / Fold change /veh CCDC152 (11751479_a_at) / RFU FAM211A (11726209_a_at) / Fold change /veh FAM211A (11726209_a_at) / RFU RGS16 (11746705_a_at) / Fold change /veh RGS16 (11746705_a_at) / RFU VCAN (11755009_s_at) / Fold change /veh VCAN (11755009_s_at) / RFU RHOB (11743442_s_at) / Fold change /veh RHOB (11743442_s_at) / RFU RGS16 (11720943_a_at) / Fold change /veh RGS16 (11720943_a_at) / RFU RGS16 (11720944_at) / Fold change /veh RGS16 (11720944_at) / RFU, VPS4B / Fold change vs veh, VPS4B / RFU, CREB1 / Fold change vs veh, CREB1 / RFU, DNAJC13 / Fold change vs veh, DNAJC13 / RFU, GNAQ / Fold change vs veh, GNAQ / RFU, CDK5R1 / Fold change vs veh, CDK5R1 / RFU, ZRANB3 / Fold change vs veh, ZRANB3 / RFU, CUL4A / Fold change vs veh, CUL4A / RFU, CCNY / Fold change vs veh, CCNY / RFU, UFL1 / Fold change vs veh, UFL1 / RFU, COG3 / Fold change vs veh, COG3 / RFU, DIAPH2 / Fold change vs veh, DIAPH2 / RFU, SKA2 / Fold change vs veh, SKA2 / RFU, AFF3 / Fold change vs veh, AFF3 / RFU, LMF1 / Fold change vs veh, LMF1 / RFU, IPO11 / Fold change vs veh, IPO11 / RFU, DFFB / Fold change vs veh, DFFB / RFU, FOXP1 / Fold change vs veh, FOXP1 / RFU, CARD8 / Fold change vs veh, CARD8 / RFU, STRN3 / Fold change vs veh, STRN3 / RFU, ADK / Fold change vs veh, ADK / RFU, RASSF2 / Fold change vs veh, RASSF2 / RFU, WIPF1 / Fold change vs veh, WIPF1 / RFU, LARP1B / Fold change vs veh, LARP1B / RFU, RASA1 / Fold change vs veh, RASA1 / RFU, RB1 / Fold change vs veh, RB1 / RFU, PPFIA1 / Fold change vs veh, PPFIA1 / RFU, MAT2A / Fold change vs veh, MAT2A / RFU, CCT5 / Fold change vs veh, CCT5 / RFU, WDR92 / Fold change vs veh, WDR92 / RFU, CUX1 / Fold change vs veh, CUX1 / RFU, TTC7A / Fold change vs veh, TTC7A / RFU, TMEM135 / Fold change vs veh, TMEM135 / RFU, DEPTOR / Fold change vs veh, DEPTOR / RFU, CPM / Fold change vs veh, CPM / RFU, DNAJB6 / Fold change vs veh, DNAJB6 / RFU, CACNA2D3 / Fold change vs veh, CACNA2D3 / RFU, DTX4 / Fold change vs veh, DTX4 / RFU, TFCP2 / Fold change vs veh, TFCP2 / RFU, GMCL1 /// GMCL1P1 / Fold change vs veh, GMCL1 /// GMCL1P1 / RFU, AEBP2 / Fold change vs veh, AEBP2 / RFU, SNHG1 /// SNORD22 /// SNORD25 /// SNORD26 /// SNORD27 /// SNORD28 /// SNORD29 /// SNORD31 / Fold change vs veh, SNHG1 /// SNORD22 /// SNORD25 /// SNORD26 /// SNORD27 /// SNORD28 /// SNORD29 /// SNORD31 / Fold change (Aza/veh), C12orf56 (ProbeSet 11735607_a_at) / Fold change (ACY-1035/veh), C12orf56 (ProbeSet 11735607_a_at) / Fold change (Aza/veh), FGFR1OP (ProbeSet 11751329_s_at) / Fold change (ACY-1035/veh), FGFR1OP (ProbeSet 11751329_s_at) / Fold change (Aza/veh), VPS36 (ProbeSet 11739960_a_at) / Fold change (ACY-1035/veh), VPS36 (ProbeSet 11739960_a_at) / RFU SYPL1 (11715823_x_at) / Fold change /veh SYPL1 (11715823_x_at) / RFU IGFBP7 (11715501_s_at) / Fold change /veh IGFBP7 (11715501_s_at) / RFU REEP3 (11722064_at) / Fold change /veh REEP3 (11722064_at) / RFU IGLL1 (11728026_x_at) / Fold change /veh IGLL1 (11728026_x_at): dose or concentration left out as unconfirmed
Settings: ProbeSet 11726661_s_at; LIST B

SMILES: Nc1ccc(-c2cccs2)cc1NC(=O)c1ccc2c(c1)cc(C1CC1)n2CCN1CCOCC1 [ACY-1035]
- RFU, GPN3: 242.51 RFU
